From patent US20250205317A1, “METHODS AND COMPOSITIONS FOR THE TREATMENT OF STROKE” (University of Maryland, Baltimore, priority 2022, published 2025)
“Also recorded” adds a separate entry of the source.

Columns and labels:
[1] = test system: patients with or without T2DM; details: long-term use, regardless of T2DM; cited from earlier work
[2] = test system: rat model with type 1 diabetes mellitus and bilateral ischemia; details: 30-minute bilateral ischemia; cited from earlier work
[3] = Blood glucose at reperfusion and at euthanasia by glucometer (Example 4); type: in vivo, mouse; details: non-diabetic mice; 200 μg/kg IV; 5-7 mice/group
[4] = Serum glucose before and after canagliflozin administration (Example 3); type: in vivo, mouse; details: 0.07 mg/kg IV; compared to baseline / vehicle; 5 mice/group
Experimental: Drugs of the gliflozin class are used in patients with diabetes mellitus to lower serum glucose. To control for the possibility that the effect of canagliflozin was mediated by a reduction in serum glucose, we measured serum glucose at various times before and after canagliflozin (0.07 mg/kg IV) administration.

[5] = test system: C57BL/6 mice, MCAo and reperfusion; assay: 2-hour MCAo followed by 24 hours reperfusion, infarct volume and reperfusion edema (Example 2); type: in vivo, mouse; details: 0.07 mg/kg IV at reperfusion
Experimental: A,B: Edema, measured as percent hemispheric swelling, vs. TTC infarct volume following 2 hour MCAo and 24 hour reperfusion; data are shown for C57BL/6 mice treated upon reperfusion with vehicle (empty circles) vs. the SGLT2 inhibitor, canagliflozin (filled squares; 0.07 mg/kg IV). Note the significant downward shift in the regression line, signifying reduced coupling between reperfusion edema and infarct volume.
The known variability in the brain damage caused by ischemia in C57BL/6 mice was leveraged (Knauss, et al., Frontiers in Neuroscience 2020) to quantify the relationship between reperfusion edema and infarct volume, under both control conditions and with SGLT2 inhibition. Mice underwent 2-hour MCAo followed by 24 hours reperfusion. At 2 hours, at the time of reperfusion, mice were randomly assigned to receive either vehicle control or canagliflozin (0.07 mg/kg IV). At 24 hours, the brains were evaluated for infarct volume using 2,3,5-triphenyltetrazolium chloride (TTC) (Khan, et al., Evaluation of an optimal temperature for brain storage in delayed 2, 3,5-triphenyltetrazolium chloride staining, J. Neurosci. Methods 2000, 98:43-47), and the hemisphere volume was quantified as a measure of reperfusion edema. McBride, et al., Correcting for Brain Swelling's Effects on Infarct Volume Calculation After Middle Cerebral Artery Occlusion in Rats, Transl. Stroke Res. 2015, 6:323-338. […]

[6] = test system: astrocytes (SGLT2 activated by glucose); assay: Astrocyte cell volume in ex vivo MCAo/R brain slices after glycemic challenge; type: cell-based, mouse; details: ipsilateral brain slices, MCAo/R 2/6 hours; step change 2 to 10 mM glucose; 5 μM
[7] = test system: C57BL6 mice, MCAo/R; assay: MCAo/R (2/24 hours): infarct volume, hemispheric swelling, brain water, Garcia score (Example 4); type: in vivo, mouse
[8] = 200 μg/kg IV at reperfusion, mean ± S.E.

Row | Compound | progression of kidney disease [1] | risk of death from cardiovascular disease [1] | blood glucose [2] | infarct volume [2] | blood glucose at 24 hours [3] | blood glucose at reperfusion [3] | serum glucose [4] | infarct volume (TTC) [5] | reperfusion edema (percent hemispheric swelling) relative to infarct volume ([5]; shift in Deming regression p<0.0001) | glucose-induced changes in astrocyte volume [6] | neurological function, Garcia score (median) ([7]; 200 μg/kg IV) | hemispheric swelling [7, 8] | infarct volume [7, 8] | maximum hemispheric swelling (YM) from exponential fit ([7]; 200 μg/kg IV, fit to Eq. 1) | ipsilateral brain water ([7]; 200 μg/kg IV, wet weight/dry weight method)
1 | OC[C@H]1O[C@@H](c2ccc(Cl)c(Cc3ccc(O[C@H]4CCOC4)cc3)c2)[C@H](O)[C@@H](O)[C@@H]1O [empagliflozin] | slows the progression of kidney disease | reduces the risk of death from cardiovascular disease | reduced blood glucose | reduced blood glucose as well as infarct volume |  |  |  |  |  |  |  |  |  |  | 
2 | Cc1ccc([C@@H]2O[C@H](CO)[C@@H](O)[C@H](O)[C@H]2O)cc1Cc1ccc(-c2ccc(F)cc2)s1 [canagliflozin] |  |  |  |  | 146 ± 10 mg/dL | 175 ± 10 mg/dL | remained euglycemic; also recorded: not affected | 63.1±8.0 % of hemisphere | reduced at all infarct volumes | completely blocked | 8 | 15.7±1.0% | 87.7±6.7 mm^3 | 17.9% | 82.3±0.4
